Where two headings read alike, the source gives them in different places.
Legend:
[1] = molecular target: alpha-amylase (Bacillus licheniformis, UniProt P06278); details: for (-Δ G°) stabilization free energy, R T ln F: 95° C. (T = 368K); for t 1/2: salt added to 1.22 M, diluted 1×100
[2] = tested on: alpha-amylase (Taka-Therm L-170); details: pH 5.5
Description: In a typical run, 70 lbs. of corn starch was suspended in 59 liters of water and the pH adjusted to 5.0 using acetic acid. […] After gelantinization, the starch was flashed into a temperature regulated vessel maintained at 95° C. for continued liquefaction for 2 hours. In another experiment, the liquefaction of starch was carried out at pH 6.3-6.5 (pH adjusted using sodium hydroxide) in the presence of 50 ppm added calcium.
Calcium chloride was added to a level of 25 ppm (as Ca^++) and the pH adjusted to 5.5 using 10% sodium hydroxide.

[3] = tested on: alpha-amylase; test: Comparative thermal stability of alpha-amylase with different anions at 90° C.; assay type: biochemical; details: percent residual activity versus time at 90° C., FIG. 2
Description: A comparative study was conducted in which the stability of alpha-amylase stabilized with acetate was compared with that containing anions known to have been added to commercially available alpha-amylase solutions. The activity of the various anion containing enzyme solutions was determined as previously described and the percent residual activity plotted as a function of time at 90° C. The results of this study are graphically represented in FIG. 2. The stabilizing effects of the different anions against thermal inactivation of the enzyme followed this order: citrate<sulphate<chloride<acetate.

Sequence of alpha-amylase (Bacillus licheniformis, UniProt P06278) (P06278 30-512): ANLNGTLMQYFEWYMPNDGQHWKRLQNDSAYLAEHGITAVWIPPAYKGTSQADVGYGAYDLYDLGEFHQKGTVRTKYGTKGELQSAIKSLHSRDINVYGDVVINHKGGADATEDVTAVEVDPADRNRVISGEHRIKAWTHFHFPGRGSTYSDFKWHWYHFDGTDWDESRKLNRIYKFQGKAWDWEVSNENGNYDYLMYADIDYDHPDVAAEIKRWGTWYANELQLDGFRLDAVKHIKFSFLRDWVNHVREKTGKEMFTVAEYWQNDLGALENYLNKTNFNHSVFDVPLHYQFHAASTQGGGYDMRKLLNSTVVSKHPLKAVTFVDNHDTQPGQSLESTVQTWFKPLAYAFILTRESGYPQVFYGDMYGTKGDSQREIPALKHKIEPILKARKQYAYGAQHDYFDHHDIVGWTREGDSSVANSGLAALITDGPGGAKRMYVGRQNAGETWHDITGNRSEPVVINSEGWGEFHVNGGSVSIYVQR

## CCCC(=O)[O-].[Na+] [CH3 CH2 CH2 COONa, sodium butyrate]
[1]; pH 5.8
  (-Δ G°) stabilization free energy, R T ln F: 1.5 K cal/mole
[1]; 95° C., pH 5.8, aliphatic monocarboxylic acid sodium salts, FIG. 1
  order of thermal stabilization of the enzyme: formate<acetate<propionate<butyrate
[1]; 95° C., pH 5.8
  t 1/2: 13.3 min
[1]; relative to formate, 95° C., pH 5.8
  additional stabilization attributed to the butyl group: about 0.6 K Cal/mol.

## O=C(O)C(c1ccccc1)c1ccccc1 [Diphenylacetic, diphenylacetic acid]
[1]
  Half-Life 95° C., pH 5.8: 15 minutes
[1]; pH 5.8
  (-Δ G°) stabilization free energy, R T ln F: 1.5 K cal/mole
[1]; 95° C., pH 5.8, comparison among acids tested
  relative stabilizing effect in words: the most
[1]; 95° C., pH 5.8
  t 1/2: 15.0 min

## CC(=O)O [Na Acetate, Sodium acetate]
[2]; Starch slurry containing 0.7 mM of sodium acetate + 25 ppm of added Ca^++, 1/2 hr
  DE Progression: 4.15
[2]; Starch slurry containing 0.7 mM of sodium acetate + 25 ppm of added Ca^++, 11/2 hr
  DE Progression: 8.87
[2]; Starch slurry containing 0.7 mM of sodium acetate + 25 ppm of added Ca^++, 1 hr
  DE Progression: 6.11
[2]; Starch slurry containing 0.7 mM of sodium acetate + 25 ppm of added Ca^++, 2 hr
  DE Progression: 10.25
[2]; Starch slurry containing 0.01 M sodium acetate and 25 ppm of added Ca^++, 1/2 hr
  DE Progression: 5.53
[2]; Starch slurry containing 0.01 M sodium acetate and 25 ppm of added Ca^++, 11/2 hr
  DE Progression: 10.82
[2]; Starch slurry containing 0.01 M sodium acetate and 25 ppm of added Ca^++, 1 hr
  DE Progression: 8.64
[2]; Starch slurry containing 0.01 M sodium acetate and 25 ppm of added Ca^++, 2 hr
  DE Progression: 13.01
[3]
  order of stabilizing effects of anions against thermal inactivation of the enzyme: citrate<sulphate<chloride<acetate

## O=C(O)Cc1ccccc1 [Phenylacetic acid, phenylacetic acid]
[1]
  Half-Life 95° C., pH 5.8: 7 minutes
[1]; pH 5.8
  (-Δ G°) stabilization free energy, R T ln F: 1.0 K cal/mole
[1]; 95° C., pH 5.8
  t 1/2: 7.0 min

## Cl [chloride]
[3]
  order of stabilizing effects of anions against thermal inactivation of the enzyme: citrate<sulphate<chloride<acetate

## O=C(O)CC(O)(CC(=O)O)C(=O)O [citrate]
[3]
  order of stabilizing effects of anions against thermal inactivation of the enzyme: citrate<sulphate<chloride<acetate

## O=S(=O)(O)O [sulphate]
[3]
  order of stabilizing effects of anions against thermal inactivation of the enzyme: citrate<sulphate<chloride<acetate

— patent US4717662A (priority 1985, dated 1988)
